Measured values reported in publication PMC3345099 (Journal of Immunology (Baltimore, Md. : 1950), 2012).
Residues, ends and D or L forms follow the SMILES beside them. No end group written: not given here.

Assays:
Assay in all cases: In vitro radiolabeled competitive HLA binding assay
[1] = biological target: HLA B*08:01 (purified MHC class I) (Homo sapiens, UniProt P01889, A93T/A95T/D138N/E176V/E187T/K202T/Q94N/R180D/S35A/V36M/Y33D/Y91F)
[2] = biological target: HLA B*07:02 (purified MHC class I) (Homo sapiens, UniProt P01889)
[3] = biological target: HLA A*02:01 (purified MHC class I) (Homo sapiens, UniProt P04439, D140Y/D185E/D98H/E176V/E277Q/G131W/G231S/I119V/I121R/I166T/I218V/L300P/L318F/N151K/N90K/P208A/P217A/Q86G/Q94H/R138H/R169H/T345S)
[4] = biological target: HLA A*26:01 (purified MHC class I) (Homo sapiens, UniProt P04439, A114D/A173T/A270S/D101N/D185E/E277Q/E87N/F33Y/G231S/I121R/I218V/K168Q/L180W/L300P/L318F/P208A/P217A/Q86R/Q94H/R138Q/S129P/T187R/T323A/T345S/V100A/V358M)
[5] = biological target: HLA B*40:01 (purified MHC class I) (Homo sapiens, UniProt P01889, A65T/A93T/A95T/D138N/D98Y/E176V/E69K/N87E/Q56L/Q94N/R180L/S121R/S35A/S48T/T167S/V36M/W171L/Y33H/Y91S)
[6] = biological target: HLA B*40:02 (purified MHC class I) (Homo sapiens, UniProt P01889, A65T/A93T/A95T/D138N/D201E/D98Y/E176V/E204Q/E69K/K202T/N87E/Q56L/Q94N/R180L/S48T/Y33H/Y91S)

Molecule | IC50 [3] | other results
CC(C)C[C@H](NC(=O)[C@H](CCC(=O)O)NC(=O)[C@H](CC(=O)O)NC(=O)[C@H](CS)NC(=O)[C@H](CCCCN)NC(=O)[C@H](CCCCN)NC(=O)[C@H](CCCCN)NC(=O)[C@H](CO)NC(=O)[C@@H](N)Cc1c[nH]cn1)C(=O)O |  | IC50 [1]: 764 nM
CC[C@H](C)[C@H](N)C(=O)N1CCC[C@H]1C(=O)N[C@@H](Cc1ccccc1)C(=O)N[C@@H](Cc1ccc(O)cc1)C(=O)NCC(=O)N[C@@H](CCCCN)C(=O)N[C@@H](C)C(=O)N[C@H](C(=O)O)[C@@H](C)CC |  | IC50 [2]: 497 nM
CC(C)C[C@H](NC(=O)[C@H](C)NC(=O)[C@H](CC(C)C)NC(=O)[C@@H](N)CC(C)C)C(=O)N[C@@H](CC(C)C)C(=O)N[C@@H](CO)C(=O)N[C@@H](CS)C(=O)N[C@@H](CC(C)C)C(=O)N[C@H](C(=O)N[C@H](C(=O)O)C(C)C)[C@@H](C)O | 357 nM | 
CSCC[C@H](NC(=O)[C@H](CO)NC(=O)[C@H](CS)NC(=O)[C@H](CS)NC(=O)[C@@H](NC(=O)[C@@H](NC(=O)[C@@H](N)CC(=O)O)C(C)C)C(C)C)C(=O)N[C@@H](CO)C(=O)N[C@@H](Cc1ccc(O)cc1)C(=O)O (H-DVVCCSMSY-OH) |  | IC50 [4]: 25 nM
FLVGQLFTF | 67 nM | 
GIDPNIRTGV | 722 nM | 
GVDPNIRTGV | 351 nM | 
HPALVFDIT |  | IC50 [2]: 160 nM
LEDRDRSEL |  | IC50 [5]: 426 nM; IC50 [6]: 4.27 µM
RLWHYPCTV | 12 nM | 
SLLAPGAKQNV | 513 nM | 
VLSDFKTWL | 305 nM | 
